Data set [1] concerns DENV-4 strain Dak HD 34 460. As to the kind of experiment: Antiviral activity against DENV-4 in Vero-B cells (viral RNA load by RT-qPCR). The settings on record: Dengue virus, DENV4, Vero B. The data set is classed as cell-based, Dengue virus.
The test system of data set [2] is DENV-3 strain H87 prototype. The data set is described as follows: Antiviral activity against DENV-3 in Vero-B cells (viral RNA load by RT-qPCR). In kind it is cell-based, Dengue virus. The settings on record: Dengue virus, DENV3, Vero B.
The next data set has as its system DENV-2 NGC. As to the kind of experiment: Antiviral activity against DENV-2 NGC in Vero-B cells (viral RNA load by RT-qPCR). The data set is classed as cell-based, Dengue virus. The note with it: Dengue virus, DENV2, Vero B, DENV-2 in Vero-B cells; inhibition of viral RNA replication by 50% (Table 3).
The nature of the next data set: in vitro. The settings on record: African green monkey; for CC50 at 4 days: uninfected quiescent Vero-B cells.

SMILES strings stand for the structures.

Take `COc1cccc(NC(C(=O)c2c[nH]c3nc(C)ccc23)c2ccccc2)c1` (centres unmarked) [CPD-225]: the EC50 was 1.16 µM in data set [1], 2990 nM in data set [2] and 380 nM in the data set on DENV-2 NGC. The compound also showed a CC50 at 4 days in “in vitro” of over 134 µM.
For `COc1cc(NC(C(=O)c2c[nH]c3ccc(F)cc23)c2ccccc2)cc(OCCO)c1` (centres unmarked) [CPD-355], in that order: 6.17 µM, 300 nM, 30 nM and 44 µM.
For the compound `CCOc1ncc(NC(C(=O)c2c[nH]c3ccccc23)c2ccccc2)cc1OC` (centres unmarked) [CPD-258], the EC50 in data set [1] is 9.42 µM; in the data set on DENV-2 NGC, 1470 nM. In addition, in “in vitro”, the CC50 at 4 days worked out at 72 µM.
On to `COc1cccc(NC(C(=O)c2c[nH]c3ccc(OC)cc23)c2ccccc2)c1` (centres unmarked) [CPD-092], for which the EC50 stood at 6.73 µM in data set [1], 930 nM in data set [2] and 100 nM with DENV-2 NGC. Moreover, in the data set “in vitro”, the CC50 at 4 days is 19 µM.
With `COc1cc(NC(C(=O)c2c[nH]c3ccccc23)c2cccnc2)cc(OCCO)c1` (centres unmarked) [CPD-343], the EC50 in data set [2] was found to be 3110 nM; in the data set with DENV-2 NGC it was 190 nM. Also, the CC50 at 4 days in “in vitro” was over 119 µM.
For `COc1cc(NC(C(=O)c2c[nH]c3ccccc23)c2ccccc2)c(F)c(OC)c1` (centres unmarked) [CPD-345], the EC50 in data set [1] came to 2.94 µM; in data set [2], 1730 nM; in the data set on DENV-2 NGC, 210 nM. The CC50 at 4 days in the data set “in vitro” was found to be 106 µM.
With `COc1cccc(NC(C(=O)c2c[nH]c3ncccc23)c2ccccc2)c1` (centres unmarked) [CPD-194], the EC50 came out at 18.7 µM in data set [1] and 940 nM with DENV-2 NGC. In “in vitro”, the CC50 at 4 days was determined as 61 µM.
For `COc1cccc(NC(C(=O)c2c[nH]c3cc(N4CCOCC4)ccc23)c2ccccc2)c1` (centres unmarked) [CPD-237], in that order: 8.31 µM, 1350 nM and over 113 µM.
For `COc1cc(O)cc(NC(C(=O)c2c[nH]c3ccccc23)c2ccccc2)c1` (centres unmarked) [CPD-359], in that order: 5.48 µM, 100 nM and 52 µM.
As for `COc1cc(NC(C(=O)c2c[nH]c3cc(Cl)ccc23)c2ccccc2)ccn1` (centres unmarked) [CPD-073], in the data set on DENV-2 NGC, a half-maximal effect (EC50) was put at 2350 nM. Moreover, in the data set “in vitro”, the CC50 at 4 days was 76 µM.
As to `COc1cccc(NC(C(=O)c2c[nH]c3ccccc23)c2cncc(OC)c2)c1` (centres unmarked) [CPD-312], the EC50 in the data set with DENV-2 NGC came to 4670 nM. Moreover, the CC50 at 4 days in the data set “in vitro” came out at 69 µM.
For `COc1cc(NC(C(=O)c2c[nH]c3ccccc23)c2ccccc2)ccc1C#N` (centres unmarked) [CPD-218], in that order: 2390 nM and 13 µM.
`COc1cncc(NC(C(=O)c2c[nH]c3ccccc23)c2cccnc2)n1` (centres unmarked) [CPD-280]: the EC50 with DENV-2 NGC stood at 780 nM. The compound also displayed a CC50 at 4 days in “in vitro” of over 139 µM.
`O=C(c1c[nH]c2ccccc12)C(Nc1ccc2nccnc2c1)c1ccccc1` (centres unmarked) [CPD-050] returned an EC50 with DENV-2 NGC of 2400 nM. For the same compound, the CC50 at 4 days in “in vitro” came out at 87 µM.
For `CC(NC(C(=O)c1c[nH]c2ccccc12)c1ccccc1)c1ccco1` (centres unmarked) [CPD-180], in that order: 57000 nM and over 145 µM.
As to `O=C(c1c[nH]c2ccccc12)C(NCC1COc2ccccc2O1)c1ccccc1` (centres unmarked) [CPD-190], the EC50 with DENV-2 NGC was found to be 1710 nM. This compound gave a CC50 at 4 days in the data set “in vitro” of 11 µM.
For `COc1cccc(NC(C(=O)c2c[nH]c3cc(CO)ccc23)c2ccccc2)c1` (centres unmarked) [CPD-140], in that order: 2150 nM and 53 µM.
Compound `COc1cccc(NC(C(=O)c2cn(CC(=O)O)c3ccccc23)c2ccccc2)c1` (centres unmarked) [CPD-106] showed an EC50 with DENV-2 NGC of 8930 nM. Moreover, the CC50 in the data set “in vitro” was over 120 µM.
Compound `O=C(c1c[nH]c2ccccc12)C(Nc1cccc(-c2cnco2)c1)c1ccccc1` (centres unmarked) [CPD-059] came in with a half-maximal effective concentration (EC50) in the data set with DENV-2 NGC of 1250 nM. The same compound registered a CC50 at 4 days in “in vitro” of 16 µM.
The corresponding values for `O=C(c1c[nH]c2ccccc12)C(NCc1ccccn1)c1ccccc1` (centres unmarked) [CPD-032] are 55500 nM and over 146 µM.
The corresponding values for `COc1cccc(NC(C(=O)c2nn(C)c3c2CNCC3)c2ccccc2)c1` (centres unmarked) [CPD-221] are 29300 nM and 80 µM.
The corresponding values for `COc1cc(NC(C(=O)c2cn(S(C)(=O)=O)c3ccccc23)c2ccccc2)ccn1` (centres unmarked) [CPD-121] are 5760 nM and 60 µM.
`COc1cccc(NC(C(=O)c2c[nH]c3ccccc23)c2cn3cccc(C)c3n2)c1` (centres unmarked) [CPD-088]: it took 2530 nM to reach a half-maximal effect with DENV-2 NGC (EC50). In “in vitro”, the CC50 at 4 days is over 121 µM.
Turning to `COc1cccc(NC(C(=O)c2nn(C)c3ccc(C#N)cc23)c2ccccc2)c1` (centres unmarked) [CPD-275], the EC50 with DENV-2 NGC turned out to be 9960 nM. This compound also registered a CC50 at 4 days in the data set “in vitro” of over 126 µM.
`CCc1cccc2c(C(=O)C(Nc3ccc(NC(=O)CN4CCOCC4)cc3)c3ccccc3)c[nH]c12` (centres unmarked) [CPD-186] returned an EC50 in the data set on DENV-2 NGC of 4350 nM. Also, in the data set “in vitro”, the CC50 at 4 days stood at 40 µM.
Compound `COc1cccc(NC(C(=O)c2c[nH]c3cnccc23)c2ccccc2)c1` (centres unmarked) [CPD-200] displayed an EC50 with DENV-2 NGC of 2240 nM. The compound further came in with a CC50 at 4 days in the data set “in vitro” of 54 µM.
The corresponding values for `COc1cc(NC(C(=O)c2c[nH]c3ccc(CCO)cc23)c2ccccc2)cc(OC)c1` (centres unmarked) [CPD-370] are 60 nM and 66 µM.
For `COc1cccc(NC(C(=O)c2c[nH]c3ccncc23)c2ccccc2)c1` (centres unmarked) [CPD-201], in that order: 12200 nM and 74 µM.
The corresponding values for `COc1cc(NC(C(=O)c2c[nH]c3ccccc23)c2cscn2)ccn1` (centres unmarked) [CPD-082] are 61800 nM and 109 µM.
For `COc1cc(NC(C(=O)c2c[nH]c3c(CO)cccc23)c2ccccc2)cc(OC)c1` (centres unmarked) [CPD-362], it took 90 nM to reach a half-maximal effect with DENV-2 NGC (EC50). Further, the CC50 at 4 days in “in vitro” turned out to be 41 µM.
For `COc1ccc2c(C(=O)C(Nc3ccnc(OC)c3)c3ccccc3)c[nH]c2c1` (centres unmarked) [CPD-076], the midpoint of the response in the data set on DENV-2 NGC, the EC50, lay at 3770 nM. Besides, the CC50 at 4 days in the data set “in vitro” is 115 µM.
`COc1cncc(NC(C(=O)c2nn(C)c3ccccc23)c2ccccc2)n1` (centres unmarked) [CPD-276]: in the data set on DENV-2 NGC, the EC50 stood at 2620 nM. For the same compound, the CC50 at 4 days in the data set “in vitro” came to 23 µM.
The corresponding values for `COc1cccc(NC(C(=O)c2c[nH]c3ccccc23)c2cccnc2OC)c1` (centres unmarked) [CPD-215] are 160 nM and 14 µM.
In the data set with DENV-2 NGC, `COc1cccc(NC(C(=O)c2cn(S(C)(=O)=O)c3ccccc23)c2ccccc2)c1` (centres unmarked) [CPD-111] had an EC50 of 440 nM. Besides, in “in vitro”, the CC50 at 4 days was over 115 µM.
For `COc1cc(NC(C(=O)c2c[nH]c3c(CCO)cccc23)c2ccc(F)cc2)cc(OC)c1` (centres unmarked) [CPD-371], in that order: 30 nM and 12 µM.
For `COc1ccnc(NC(C(=O)c2c[nH]c3ccccc23)c2ccccc2)n1` (centres unmarked) [CPD-089], in that order: 670 nM and over 139 µM.
Turning to `COc1cccc(NC(C(=O)c2c[nH]c3ccc(CO)cc23)c2ccccc2)c1` (centres unmarked) [CPD-219], the results for the EC50 (in data set [2]; with DENV-2 NGC) were 22100 nM and 520 nM, respectively. Besides, the CC50 at 4 days in “in vitro” amounted to 86 µM.
In the data set on DENV-2 NGC, `COc1cccc(NC(C(=O)c2c[nH]c3ccccc23)c2cc(C)no2)c1` (centres unmarked) [CPD-102] displayed a concentration for a half-maximal effect (EC50) of 620 nM. Moreover, in “in vitro”, the CC50 at 4 days stood at 65 µM.
Turning to `COCCn1cc(C(=O)C(Nc2cccc(OC)c2)c2ccccc2)c2ccccc21` (centres unmarked) [CPD-136], the EC50 in the data set with DENV-2 NGC is 220 nM. For the same compound, the CC50 in the data set “in vitro” is over 120 µM.
For `COc1cc(C)nc(NC(C(=O)c2c[nH]c3ccccc23)c2ccccc2)n1` (centres unmarked) [CPD-062], in the data set on DENV-2 NGC, a half-maximal effect (EC50) was put at 580 nM. Further, the CC50 at 4 days in the data set “in vitro” was over 134 µM.
For `COc1cccc(NC(C(=O)c2c[nH]c3ccccc23)c2[nH]cnc2C)c1` (centres unmarked) [CPD-125], in that order: 7190 nM and over 138 µM.
For `COc1cccc(NC(C(=O)c2c[nH]c3ccc(S(=O)(=O)N(C)C)cc23)c2ccccc2)c1` (centres unmarked) [CPD-129], in that order: 1090 nM and over 108 µM.
For `COc1cccc(NC(C(=O)c2csc3c2CCN(C)C3)c2ccccc2)c1` (centres unmarked) [CPD-202], in that order: 8330 nM and 104 µM.
Turning to `O=C(c1c[nH]c2ccccc12)C(Nc1cccc(CO)c1)c1ccccc1` (centres unmarked) [CPD-179], in the data set on DENV-2 NGC, the 50% effective concentration (EC50) was 5300 nM. For the same compound, in the data set “in vitro”, the CC50 at 4 days came to 135 µM.
The corresponding values for `CCc1cccc(NC(C(=O)c2c[nH]c3ccccc23)c2ccccc2)c1` (centres unmarked) [CPD-046] are 650 nM and 17 µM.
For `CNS(=O)(=O)c1cccc(NC(C(=O)c2c[nH]c3ccccc23)c2ccccc2)c1` (centres unmarked) [CPD-052], in that order: 3720 nM and 52 µM.
For `COc1cc(CN(C)C)cc(NC(C(=O)c2c[nH]c3ccccc23)c2ccccc2)c1` (centres unmarked) [CPD-263], in that order: 2180 nM and 13 µM.
In the case of `COc1cc(NC(C(=O)c2c[nH]c3c(CCN(C)C)cccc23)c2ccccc2)cc(OC)c1` (centres unmarked) [CPD-365], the EC50 with DENV-2 NGC came to 2030 nM. This compound registered a CC50 at 4 days in “in vitro” of 12 µM.
For `O=C(c1c[nH]c2ccccc12)C(Nc1ccc(F)c(F)c1)c1ccccc1` (centres unmarked) [CPD-007], in that order: 2530 nM and 5 µM.
For `COc1cccc(NC(C(=O)c2c[nH]c3ccccc23)c2cn3cc(C)ccc3n2)c1` (centres unmarked) [CPD-098], in that order: 10700 nM and over 121 µM.
`COc1cccc(NC(C(=O)c2c[nH]c3ccccc23)c2ccc(COCN(C)C)cc2)c1` (centres unmarked) [CPD-112] gave an EC50 in the data set with DENV-2 NGC of 3270 nM. The compound further displayed a CC50 at 4 days in the data set “in vitro” of 12 µM.
Turning to `COc1cc(NC(C(=O)c2c[nH]c3ccccc23)c2ccc(C)cc2)cc(OCCO)c1` (centres unmarked) [CPD-369], the EC50 in the data set on DENV-2 NGC stood at 10 nM. The same compound registered a CC50 at 4 days in “in vitro” of 11 µM.
For `O=C(c1c[nH]c2ccccc12)C(NC1CCSc2ccccc21)c1ccccc1` (centres unmarked) [CPD-191], in that order: 2580 nM and 13 µM.
The corresponding values for `Cc1cc(NC(C(=O)c2c[nH]c3ccccc23)c2ccccc2)no1` (centres unmarked) [CPD-022] are 12800 nM and 77 µM.

Source of the values: patent publication US12012411B2, “Viral replication inhibitors” (Katholieke Universiteit Leuven, priority 2011, dated 2024).
